Test results as given in patent publication US20230085307A1, “PYRIDAZINONE COMPOUND AND HERBICIDE” (NISSAN CHEMICAL CORPORATION, priority 2019, published 2023).

Tests used:
windgrass = experiment: Test Example 4: herbicidal effect by soil treatment (Table 19, symbol L); format: in vivo, windgrass (Apera spica-venti); details: amount of applied herbicide 320 g/ha
Summary of the method: (§1)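 In this soil treatment, the formulated compound reached the seeds only through the soil: seeds were buried about 1.5 cm deep in sterilized diluvial soil, then the diluted emulsion was sprayed over the surface. After three weeks at 25° C. to 30° C. in a greenhouse, effects were graded on criteria from an earlier test.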

green foxtail [1] = experiment: Test Example 4: herbicidal effect by soil treatment (Table 19, symbol G); format: in vivo, green foxtail (Setaria viridis); details: amount of applied herbicide 320 g/ha
Summary of the method: as §1

barnyard grass = experiment: Test Example 4: herbicidal effect by soil treatment (Table 19, symbol H); format: in vivo, barnyard grass (Echinochloa crus-galli); details: amount of applied herbicide 320 g/ha
Summary of the method: as §1

lambsquarters = experiment: Test Example 4: herbicidal effect by soil treatment (Table 19, symbol O); format: in vivo, lambsquarters (Chenopodium album); details: amount of applied herbicide 320 g/ha
Summary of the method: as §1

Japanese bulrush = experiment: Test Example 2: herbicidal activity, application during weed generation under submerged conditions (Table 17, symbol B); format: in vivo, Japanese bulrush (Schoenoplectus juncoides); details: AAH 320 g/ha; application during weed generation, submerged conditions
Summary of the method: (§2)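 Alluvial soil in Wagner pots was flooded to 4 cm depth and sown with the three weeds together; pots were kept in a greenhouse at 25° C. to 30° C. At the one to two leaf stage, an emulsion formulation diluted in water to a set rate went onto the water surface; scored three weeks later.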

green foxtail [2] = experiment: Test Example 5: herbicidal effect by foliage application, plastic box (Table 20, symbol G); format: in vivo, green foxtail (Setaria viridis); details: 320 g/ha; for G: green foxtail, herbicidal effect grade: foliage application, three weeks after application; for herbicidal effect on G: green foxtail (evaluation grade 0-5): foliage application after 14-day growth, evaluated three weeks after application
Summary of the method: (§3)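 Plants were sown into sterilized diluvial soil under about 1.5 cm cover and kept in a greenhouse at 25° C. to 30° C. Fourteen days on, foliage received an even spray of the diluted emulsion. Herbicidal or crop effect was judged three weeks afterwards.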

chickweed [3] = experiment: Test Example 4: herbicidal effect by soil treatment (Table 19, symbol P); format: in vivo, common chickweed (Stellaria media); details: amount of applied herbicide 320 g/ha
Summary of the method: as §1

Italian ryegrass = experiment: Test Example 5: herbicidal effect by foliage application, plastic box (Table 20, symbol K); format: in vivo, Italian ryegrass (Lolium multiflorum); details: 320 g/ha; for K: Italian ryegrass, herbicidal effect grade: foliage application, three weeks after application; for herbicidal effect on K: Italian ryegrass (evaluation grade 0-5): foliage application after 14-day growth, evaluated three weeks after application
Summary of the method: as §3

rice flat sedge = experiment: Test Example 3: herbicidal effect by foliage application, Wagner pot (Table 18, symbol E); format: in vivo, rice flat sedge (Cyperus iria); details: 320 g/ha
Summary of the method: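 Plants were sown in alluvial soil held under 0.1–0.5 cm standing water and grown 14 days in a greenhouse at 25–30 °C. An emulsifiable formulation, water-diluted to the set dose, was then sprayed onto the foliage, and effects were scored three weeks later using previously defined criteria.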

redroot pigweed = experiment: Test Example 5: herbicidal effect by foliage application, plastic box (Table 20, symbol N); format: in vivo, redroot pigweed (Amaranthus retroflexus); details: 320 g/ha; for N: redroot pigweed, herbicidal effect grade: foliage application, three weeks after application; for herbicidal effect on N: redroot pigweed (evaluation grade 0-5): foliage application after 14-day growth, evaluated three weeks after application
Summary of the method: as §3

late watergrass [4] = experiment: Test Example 1: herbicidal activity, application before weed generation under submerged conditions (Table 16, symbol A); format: in vivo, late watergrass (Echinochloa oryzicola); details: amount of applied herbicide 320 g/ha
Summary of the method: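 Submerged Wagner pots (alluvial soil, 4 cm water) sown with weed seeds and planted with 2.5-leaf rice seedlings; emulsifiable concentrate diluted in water applied to water surface on sowing day. Held in greenhouse at 25-30 °C; injury scored 0-5 by herbicidal rate after three weeks.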

velvetleaf [5] = experiment: Test Example 5: herbicidal effect by foliage application, plastic box (Table 20, symbol M); format: in vivo, velvetleaf (Abutilon theophrasti); details: 320 g/ha; for M: velvetleaf, herbicidal effect grade: foliage application, three weeks after application; for herbicidal effect on M: velvetleaf (evaluation grade 0-5): foliage application after 14-day growth, evaluated three weeks after application
Summary of the method: as §3

persian speedwell = experiment: Test Example 4: herbicidal effect by soil treatment (Table 19, symbol R); format: in vivo, Persian speedwell (Veronica persica); details: amount of applied herbicide 320 g/ha
Summary of the method: as §1

late watergrass [6] = experiment: Test Example 2: herbicidal activity, application during weed generation under submerged conditions (Table 17, symbol A); format: in vivo, late watergrass (Echinochloa oryzicola); details: AAH 320 g/ha; application during weed generation, submerged conditions
Summary of the method: as §2

oval-leafed pondweed = experiment: Test Example 2: herbicidal activity, application during weed generation under submerged conditions (Table 17, symbol C); format: in vivo, oval-leafed pondweed (Monochoria vaginalis); details: AAH 320 g/ha; application during weed generation, submerged conditions
Summary of the method: as §2

chickweed [7] = experiment: Test Example 5: herbicidal effect by foliage application, plastic box (Table 20, symbol P); format: in vivo, common chickweed (Stellaria media); details: 320 g/ha; for P: chickweed, herbicidal effect grade: foliage application, three weeks after application; for herbicidal effect on P: chickweed (evaluation grade 0-5): foliage application after 14-day growth, evaluated three weeks after application
Summary of the method: as §3

velvetleaf [8] = experiment: Test Example 4: herbicidal effect by soil treatment (Table 19, symbol M); format: in vivo, velvetleaf (Abutilon theophrasti); details: amount of applied herbicide 320 g/ha
Summary of the method: as §1

## CCOc1ccccc1-c1sc2cc(OCCOC)ccc2c1-c1c(O)c(C)nn(C)c1=O [3-123]
windgrass
  L: windgrass, herbicidal effect grade: 5 (Herbicidal rate of 90% or more (almost completely withered))
Green foxtail [1]
  G: green foxtail, herbicidal effect grade: 5 (Herbicidal rate of 90% or more (almost completely withered))
Barnyard grass
  H: barnyard grass, herbicidal effect grade: 5 (Herbicidal rate of 90% or more (almost completely withered))
lambsquarters
  O: lambsquarters, herbicidal effect grade: 5 (Herbicidal rate of 90% or more (almost completely withered))
Japanese bulrush
  herbicidal effect rating, B: Japanese bulrush: 3 (Herbicidal rate of 40% or more and less than 70%)
Green foxtail [2]
  G: green foxtail, herbicidal effect grade: 5 (Herbicidal rate of 90% or more (almost completely withered))
Chickweed [3]
  P: chickweed, herbicidal effect grade: 5 (Herbicidal rate of 90% or more (almost completely withered))
Italian ryegrass
  K: Italian ryegrass, herbicidal effect grade: 5 (Herbicidal rate of 90% or more (almost completely withered))
Rice flat sedge
  herbicidal effect on rice flat sedge (E): 5 (Herbicidal rate of 90% or more (almost completely withered))
Redroot pigweed
  N: redroot pigweed, herbicidal effect grade: 5 (Herbicidal rate of 90% or more (almost completely withered))
Late watergrass [4]
  Herbicidal effect, A: late watergrass: 5 (Herbicidal rate of 90% or more (almost completely withered))
Velvetleaf [5]
  M: velvetleaf, herbicidal effect grade: 5 (Herbicidal rate of 90% or more (almost completely withered))
Persian speedwell
  R: persian speedwell, herbicidal effect grade: 5 (Herbicidal rate of 90% or more (almost completely withered))
Late watergrass [6]
  herbicidal effect rating, A: late watergrass: 3 (Herbicidal rate of 40% or more and less than 70%)
oval-leafed pondweed
  herbicidal effect rating, C: oval-leafed pondweed: 2 (Herbicidal rate of 20% or more and less than 40%)
Chickweed [7]
  P: chickweed, herbicidal effect grade: 5 (Herbicidal rate of 90% or more (almost completely withered))
Velvetleaf [8]
  M: velvetleaf, herbicidal effect grade: 2 (Herbicidal rate of 20% or more and less than 40%)

## COc1ccccc1-c1sc2cc(OCCSC)ccc2c1-c1c(O)c(C)nn(C)c1=O [3-125]
windgrass
  L: windgrass, herbicidal effect grade: 3 (Herbicidal rate of 40% or more and less than 70%)
Green foxtail [1]
  G: green foxtail, herbicidal effect grade: 2 (Herbicidal rate of 20% or more and less than 40%)
Barnyard grass
  H: barnyard grass, herbicidal effect grade: 0 (Herbicidal rate of 5% or less (almost no effect))
lambsquarters
  O: lambsquarters, herbicidal effect grade: 5 (Herbicidal rate of 90% or more (almost completely withered))
Japanese bulrush
  herbicidal effect rating, B: Japanese bulrush: 3 (Herbicidal rate of 40% or more and less than 70%)
Green foxtail [2]
  G: green foxtail, herbicidal effect grade: 5 (Herbicidal rate of 90% or more (almost completely withered))
Chickweed [3]
  P: chickweed, herbicidal effect grade: 5 (Herbicidal rate of 90% or more (almost completely withered))
Italian ryegrass
  K: Italian ryegrass, herbicidal effect grade: 5 (Herbicidal rate of 90% or more (almost completely withered))
Rice flat sedge
  herbicidal effect on rice flat sedge (E): 5 (Herbicidal rate of 90% or more (almost completely withered))
Redroot pigweed
  N: redroot pigweed, herbicidal effect grade: 5 (Herbicidal rate of 90% or more (almost completely withered))
Late watergrass [4]
  Herbicidal effect, A: late watergrass: 3 (Herbicidal rate of 40% or more and less than 70%)
Velvetleaf [5]
  M: velvetleaf, herbicidal effect grade: 4 (Herbicidal rate of 70% or more and less than 90%)
Persian speedwell
  R: persian speedwell, herbicidal effect grade: 5 (Herbicidal rate of 90% or more (almost completely withered))
Late watergrass [6]
  herbicidal effect rating, A: late watergrass: 0 (Herbicidal rate of 5% or less (almost no effect))
oval-leafed pondweed
  herbicidal effect rating, C: oval-leafed pondweed: 3 (Herbicidal rate of 40% or more and less than 70%)
Chickweed [7]
  P: chickweed, herbicidal effect grade: 5 (Herbicidal rate of 90% or more (almost completely withered))
Velvetleaf [8]
  M: velvetleaf, herbicidal effect grade: 4 (Herbicidal rate of 70% or more and less than 90%)

## C=C(C)C(=O)Oc1c(C)nn(C)c(=O)c1-c1c(-c2ccccc2OC)sc2cc(OC)ccc12 [3-155]
windgrass
  Herbicidal effect by soil treatment, L: windgrass: 4 (Herbicidal rate of 70% or more and less than 90%)
Green foxtail [1]
  Herbicidal effect by soil treatment, G: green foxtail: 0 (Herbicidal rate of 5% or less (almost no effect))
Barnyard grass
  Herbicidal effect by soil treatment, H: barnyard grass: 2 (Herbicidal rate of 20% or more and less than 40%)
lambsquarters
  Herbicidal effect by soil treatment, O: lambsquarters: 0 (Herbicidal rate of 5% or less (almost no effect))
Japanese bulrush
  herbicidal effect rating, B: Japanese bulrush: 5 (Herbicidal rate of 90% or more (almost completely withered))
Green foxtail [2]
  herbicidal effect on G: green foxtail (evaluation grade 0-5): 5 (Herbicidal rate of 90% or more (almost completely withered))
Chickweed [3]
  Herbicidal effect by soil treatment, P: chickweed: 1 (Herbicidal rate of 5% or more and less than 20%)
Italian ryegrass
  herbicidal effect on K: Italian ryegrass (evaluation grade 0-5): 4 (Herbicidal rate of 70% or more and less than 90%)
Rice flat sedge
  herbicidal effect on rice flat sedge (E): 4 (Herbicidal rate of 70% or more and less than 90%)
Redroot pigweed
  herbicidal effect on N: redroot pigweed (evaluation grade 0-5): 5 (Herbicidal rate of 90% or more (almost completely withered))
Late watergrass [4]
  Herbicidal effect, A: late watergrass: 5 (Herbicidal rate of 90% or more (almost completely withered))
Velvetleaf [5]
  herbicidal effect on M: velvetleaf (evaluation grade 0-5): 5 (Herbicidal rate of 90% or more (almost completely withered))
Persian speedwell
  Herbicidal effect by soil treatment, R: persian speedwell: 0 (Herbicidal rate of 5% or less (almost no effect))
Late watergrass [6]
  herbicidal effect rating, A: late watergrass: 5 (Herbicidal rate of 90% or more (almost completely withered))
oval-leafed pondweed
  herbicidal effect rating, C: oval-leafed pondweed: 5 (Herbicidal rate of 90% or more (almost completely withered))
Chickweed [7]
  herbicidal effect on P: chickweed (evaluation grade 0-5): 5 (Herbicidal rate of 90% or more (almost completely withered))
Velvetleaf [8]
  Herbicidal effect by soil treatment, M: velvetleaf: 0 (Herbicidal rate of 5% or less (almost no effect))

## COc1ccc2c(-c3c(OC(=O)c4ccccc4OC)c(C)nn(C)c3=O)c(-c3ccccc3OC)sc2c1 [3-158]
windgrass
  Herbicidal effect by soil treatment, L: windgrass: 0 (Herbicidal rate of 5% or less (almost no effect))
Green foxtail [1]
  Herbicidal effect by soil treatment, G: green foxtail: 0 (Herbicidal rate of 5% or less (almost no effect))
Barnyard grass
  Herbicidal effect by soil treatment, H: barnyard grass: 0 (Herbicidal rate of 5% or less (almost no effect))
lambsquarters
  Herbicidal effect by soil treatment, O: lambsquarters: 0 (Herbicidal rate of 5% or less (almost no effect))
Japanese bulrush
  herbicidal effect rating, B: Japanese bulrush: 3 (Herbicidal rate of 40% or more and less than 70%)
Green foxtail [2]
  herbicidal effect on G: green foxtail (evaluation grade 0-5): 5 (Herbicidal rate of 90% or more (almost completely withered))
Chickweed [3]
  Herbicidal effect by soil treatment, P: chickweed: 1 (Herbicidal rate of 5% or more and less than 20%)
Italian ryegrass
  herbicidal effect on K: Italian ryegrass (evaluation grade 0-5): 4 (Herbicidal rate of 70% or more and less than 90%)
Rice flat sedge
  herbicidal effect on rice flat sedge (E): 4 (Herbicidal rate of 70% or more and less than 90%)
Redroot pigweed
  herbicidal effect on N: redroot pigweed (evaluation grade 0-5): 5 (Herbicidal rate of 90% or more (almost completely withered))
Late watergrass [4]
  Herbicidal effect, A: late watergrass: 5 (Herbicidal rate of 90% or more (almost completely withered))
Velvetleaf [5]
  herbicidal effect on M: velvetleaf (evaluation grade 0-5): 5 (Herbicidal rate of 90% or more (almost completely withered))
Persian speedwell
  Herbicidal effect by soil treatment, R: persian speedwell: 0 (Herbicidal rate of 5% or less (almost no effect))
Late watergrass [6]
  herbicidal effect rating, A: late watergrass: 4 (Herbicidal rate of 70% or more and less than 90%)
oval-leafed pondweed
  herbicidal effect rating, C: oval-leafed pondweed: 5 (Herbicidal rate of 90% or more (almost completely withered))
Chickweed [7]
  herbicidal effect on P: chickweed (evaluation grade 0-5): 5 (Herbicidal rate of 90% or more (almost completely withered))
Velvetleaf [8]
  Herbicidal effect by soil treatment, M: velvetleaf: 0 (Herbicidal rate of 5% or less (almost no effect))
